Measured values reported in patent US20150335657A1, “Methods for Modulating Sirtuin Enzymes” (The Trustees of Princeton University, priority 2014, published 2015).

Experiments:
[1] = tested on: human cytomegalovirus (HCMV) AD169 strain; test: Antiviral activity against HCMV in MRC5 fibroblasts (virus yield, fluorescent focus assay); type: cell-based; settings: Human betaherpesvirus 5, HCMV AD169, 1 infectious unit/cell, treated 2 h after infection, virus in medium at 96 h
[2] = Tetrazolium-based cell viability assay (cytotoxicity); settings: human
[3] = biological target: T1, SIRT1 (Homo sapiens, UniProt Q96EB6); test: Sirtuin deacetylase enzyme activity assay (Cayman Chemical), compound screen; type: biochemical; settings: compound at 50 μM; Z-score of change in fluorescent signal; + increase, − decrease
T1 construct: purchased Cayman Chemical
T1 sequence (Q96EB6 1-747): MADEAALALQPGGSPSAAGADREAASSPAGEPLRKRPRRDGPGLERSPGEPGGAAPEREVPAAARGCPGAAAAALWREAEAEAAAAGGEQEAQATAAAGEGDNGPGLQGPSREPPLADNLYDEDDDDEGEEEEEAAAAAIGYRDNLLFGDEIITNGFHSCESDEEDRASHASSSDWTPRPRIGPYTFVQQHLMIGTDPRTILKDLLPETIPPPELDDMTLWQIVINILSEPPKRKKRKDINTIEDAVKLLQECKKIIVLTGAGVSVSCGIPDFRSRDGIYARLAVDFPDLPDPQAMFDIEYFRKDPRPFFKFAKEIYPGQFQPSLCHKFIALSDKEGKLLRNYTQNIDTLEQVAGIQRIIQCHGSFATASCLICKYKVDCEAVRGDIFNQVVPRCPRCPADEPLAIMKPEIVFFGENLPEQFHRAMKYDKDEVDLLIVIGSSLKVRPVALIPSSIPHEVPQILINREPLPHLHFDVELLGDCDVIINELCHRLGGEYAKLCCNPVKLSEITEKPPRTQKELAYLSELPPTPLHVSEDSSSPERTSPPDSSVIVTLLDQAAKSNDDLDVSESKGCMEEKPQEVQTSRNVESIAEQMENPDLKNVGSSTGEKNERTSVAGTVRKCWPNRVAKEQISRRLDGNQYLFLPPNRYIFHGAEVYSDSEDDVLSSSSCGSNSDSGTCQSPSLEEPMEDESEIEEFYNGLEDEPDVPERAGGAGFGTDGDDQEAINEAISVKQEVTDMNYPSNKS
From the text: (§1) Sirtuins have been identified as innate viral restriction factors and it has been previously shown that drugs that modulate the activity of these enzymes block the production of multiple viruses in culture (see, e.g., WO 2012/106509). Sirtuins are NAD-dependent enzymes that regulate the activity of target proteins by post-translational modifications and thereby control key cellular events (see, e.g., Haigis and Sinclair (2010) Ann Rev Pathol Mech Dis 5:253-95). SIRT1, SIRT2, SIRT3 and SIRT6 have shown a detectable deacetylase activity in well-established biochemical assays that utilize recombinant SIRT1, SIRT2, SIRT3, and SIRT6 enzymes and fluorophore-conjugated acetyl-peptides. As described in the Examples below, the deacetylase activity of these sirtuins were used as a surrogate to identify compounds having broad-range antiviral activity.
(§2) A publically disclosed, small molecule library consisting of approximately 13,000 compounds was screened using a commercially available (Cayman Chemical) enzyme activity assay. Deacetylase activity of sirtuins SIRT1, SIRT2, SIRT3, and SIRT6 was used as a surrogate to identify compounds with the potential for having broad-range antiviral activity. The compounds were tested at a single concentration (50 μM) in microtiter plates and their activity against the four sirtuins was recorded as a change in fluorescent signal intensity. […] Activation of sirtuin activity generated positive Z-scores and inhibition of sirtuin activity produced negative Z-scores.

[4] = biological target: T2, SIRT3 (Homo sapiens, UniProt Q9NTG7); test: as above; type: biochemical; settings: compound at 50 μM; Z-score of change in fluorescent signal; + increase, − decrease
T2 construct: purchased Cayman Chemical
T2 sequence (Q9NTG7 1-399): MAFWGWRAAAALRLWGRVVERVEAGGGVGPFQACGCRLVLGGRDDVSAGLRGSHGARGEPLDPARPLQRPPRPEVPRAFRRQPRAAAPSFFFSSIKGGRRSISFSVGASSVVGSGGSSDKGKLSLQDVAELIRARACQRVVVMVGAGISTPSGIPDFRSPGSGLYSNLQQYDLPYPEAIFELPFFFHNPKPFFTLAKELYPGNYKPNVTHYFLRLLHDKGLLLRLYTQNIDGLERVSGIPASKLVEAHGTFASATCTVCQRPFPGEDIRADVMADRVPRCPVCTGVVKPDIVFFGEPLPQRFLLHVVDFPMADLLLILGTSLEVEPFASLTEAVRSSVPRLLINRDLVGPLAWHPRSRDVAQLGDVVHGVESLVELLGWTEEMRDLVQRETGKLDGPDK
From the text: as §1, §2

[5] = biological target: T3, SIRT6 (Homo sapiens, UniProt Q8N6T7); test: as above; type: biochemical; settings: compound at 50 μM; Z-score of change in fluorescent signal; + increase, − decrease
T3 construct: purchased Cayman Chemical
From the text: as §1, §2

[6] = biological target: T4, SIRT2 (Homo sapiens, UniProt Q8IXJ6); test: as above; type: biochemical; settings: compound at 50 μM; Z-score of change in fluorescent signal; + increase, − decrease
T4 construct: purchased Cayman Chemical
T4 sequence (Q8IXJ6 1-389): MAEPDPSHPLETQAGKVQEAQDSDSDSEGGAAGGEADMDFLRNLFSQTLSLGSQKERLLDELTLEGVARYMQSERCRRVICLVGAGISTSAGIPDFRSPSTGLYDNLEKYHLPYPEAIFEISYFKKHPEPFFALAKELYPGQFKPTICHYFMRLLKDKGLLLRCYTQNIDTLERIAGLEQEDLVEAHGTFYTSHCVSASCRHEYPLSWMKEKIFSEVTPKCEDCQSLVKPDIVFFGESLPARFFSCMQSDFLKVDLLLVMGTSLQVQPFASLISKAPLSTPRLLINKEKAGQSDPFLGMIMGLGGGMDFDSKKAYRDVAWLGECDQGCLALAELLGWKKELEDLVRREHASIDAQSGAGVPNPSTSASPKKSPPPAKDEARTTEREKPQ
From the text: as §1, §2

T3 sequence (Q8N6T7 whole entry): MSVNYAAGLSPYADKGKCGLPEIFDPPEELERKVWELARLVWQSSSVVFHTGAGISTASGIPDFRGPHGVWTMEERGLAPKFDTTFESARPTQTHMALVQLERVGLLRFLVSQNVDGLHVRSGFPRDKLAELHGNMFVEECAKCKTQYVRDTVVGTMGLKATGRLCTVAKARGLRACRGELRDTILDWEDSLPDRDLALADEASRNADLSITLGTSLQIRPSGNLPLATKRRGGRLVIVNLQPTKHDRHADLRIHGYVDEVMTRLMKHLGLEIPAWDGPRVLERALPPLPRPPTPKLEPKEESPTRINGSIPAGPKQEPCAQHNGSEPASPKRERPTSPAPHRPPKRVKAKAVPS

Compound | IC50 [1] [µM] | IC90 [1] [µM] | CC50 at 96 h [2] [µM] | SIRT1 (change in sirtuin deacetylase activity, Z-score class) [3] | SIRT3 (change in sirtuin deacetylase activity, Z-score class) [4] | SIRT6 (change in sirtuin deacetylase activity, Z-score class) [5] | SIRT2 (change in sirtuin deacetylase activity, Z-score class) [6]
CC(c1cnc2ccccc2c1)C(F)C1N(Cc2ccccc2)C(=O)c2cccnc2N1C (stereo not shown) | 1.74 | 16.1 | > 50 | +++ (Z-score ≧ 3 = +++) | +++ (Z-score ≧ 3 = +++) | +++ (Z-score ≧ 3 = +++) | +++ (Z-score ≧ 3 = +++)
CC(c1ccc2nccnc2c1)c1cnc(N2CCc3ccccc3C2)s1 (stereo not shown) | 4.58 | 5.95 | > 50 | −− (−3 < Z-score ≦ −2 = −−) | na (−2 ≦ Z-score < 2 = no activity (na)) | na (−2 ≦ Z-score < 2 = no activity (na)) | −− (−3 < Z-score ≦ −2 = −−)
COc1cccc(CN2C(=O)c3cccnc3N(C)C2C(F)C(C)c2cnc3ccccc3c2)c1 (stereo not shown) | 1.54 | 15.5 | 25 to 50 | +++ (Z-score ≧ 3 = +++) | +++ (Z-score ≧ 3 = +++) | +++ (Z-score ≧ 3 = +++) | +++ (Z-score ≧ 3 = +++)
COc1ccccc1C(C)C(F)CNc1cnc2ccccc2c1 (stereo not shown) | 1.19 | 2.24 | > 50 | +++ (Z-score ≧ 3 = +++) | na (−2 ≦ Z-score < 2 = no activity (na)) | +++ (Z-score ≧ 3 = +++) | ++ (2 ≦ Z-score < 3 = ++)
CCCN1CC(C(C)c2ccccc2OC)N(c2cccnc2)C1=O (stereo not shown) | 9.91 | 32.2 | > 50 | na (−2 ≦ Z-score < 2 = no activity (na)) | na (−2 ≦ Z-score < 2 = no activity (na)) | +++ (Z-score ≧ 3 = +++) | na (−2 ≦ Z-score < 2 = no activity (na))
COc1ccccc1C1C(=O)N(C(C)C)CC1O (stereo not shown) | 23.9 | 47.2 | > 50 | na (−2 ≦ Z-score < 2 = no activity (na)) | na (−2 ≦ Z-score < 2 = no activity (na)) | na (−2 ≦ Z-score < 2 = no activity (na)) | +++ (Z-score ≧ 3 = +++)
COc1cccc(C(C)C(O)Cn2cc(-c3cc(Cl)cnc3N)nn2)c1 (stereo not shown) | 26.2 | 44.3 | > 50 | +++ (Z-score ≧ 3 = +++) | na (−2 ≦ Z-score < 2 = no activity (na)) | +++ (Z-score ≧ 3 = +++) | na (−2 ≦ Z-score < 2 = no activity (na))
CC(c1ccc(F)cc1)C(O)Cn1cc(-c2cc(Cl)cnc2N)nn1 (stereo not shown) | 15.1 | 35.6 | > 50 | +++ (Z-score ≧ 3 = +++) | na (−2 ≦ Z-score < 2 = no activity (na)) | ++ (2 ≦ Z-score < 3 = ++) | na (−2 ≦ Z-score < 2 = no activity (na))
CNC(=O)c1cccc(CN(CCC(C)C(C)C)S(=O)(=O)c2cn(C)cn2)c1 (stereo not shown) | 13.4 | 41.8 | > 50 | na (−2 ≦ Z-score < 2 = no activity (na)) | na (−2 ≦ Z-score < 2 = no activity (na)) | na (−2 ≦ Z-score < 2 = no activity (na)) | ++ (2 ≦ Z-score < 3 = ++)
CC(c1ccncc1)c1cnc(N2CCc3ccccc3C2)s1 (stereo not shown) | 28.3 | 41.9 | > 50 | na (−2 ≦ Z-score < 2 = no activity (na)) | na (−2 ≦ Z-score < 2 = no activity (na)) | na (−2 ≦ Z-score < 2 = no activity (na)) | −−− (Z-score ≦ −3 = −−−)
COc1ccc(C(C)C(CN2CCc3ccccc3C2)n2nc(-c3cccnc3)cc2N)cc1 (stereo not shown) | 27.7 | 55.7 | > 50 | −−− (Z-score ≦ −3 = −−−) | na (−2 ≦ Z-score < 2 = no activity (na)) | na (−2 ≦ Z-score < 2 = no activity (na)) | −− (−3 < Z-score ≦ −2 = −−)
CC(C)c1cc(N)n(C(C(=O)O)C(C)c2ccccc2Cl)n1 (stereo not shown) | 25.5 | 57.9 | > 50 | −− (−3 < Z-score ≦ −2 = −−) | na (−2 ≦ Z-score < 2 = no activity (na)) | na (−2 ≦ Z-score < 2 = no activity (na)) | −− (−3 < Z-score ≦ −2 = −−)
Cc1ccc(C(C)C(CN2CCN(C)CC2)Oc2cnccn2)cn1 (stereo not shown) | 30.2 | 56 | > 50 | na (−2 ≦ Z-score < 2 = no activity (na)) | na (−2 ≦ Z-score < 2 = no activity (na)) | +++ (Z-score ≧ 3 = +++) | na (−2 ≦ Z-score < 2 = no activity (na))
